# Assay results reported in US11873298B2, “Compounds and uses thereof” (JANSSEN PHARMACEUTICA NV, priority 2017, dated 2024).
# Key:
# SCD5 = target: T1, SCD5 (Homo sapiens, UniProt Q86SK9); experiment: Growth inhibition of humanized yeast strain expressing SCD5 as sole desaturase; type: cell-based
# T1 construct: host or cells: S. cerevisiae ole1Δ strain (W303 pdr1Δ pdr3Δ background), plasmid pRS316 with TDH3 promoter and CYC1 terminator
# T1 sequence (Q86SK9 1-330): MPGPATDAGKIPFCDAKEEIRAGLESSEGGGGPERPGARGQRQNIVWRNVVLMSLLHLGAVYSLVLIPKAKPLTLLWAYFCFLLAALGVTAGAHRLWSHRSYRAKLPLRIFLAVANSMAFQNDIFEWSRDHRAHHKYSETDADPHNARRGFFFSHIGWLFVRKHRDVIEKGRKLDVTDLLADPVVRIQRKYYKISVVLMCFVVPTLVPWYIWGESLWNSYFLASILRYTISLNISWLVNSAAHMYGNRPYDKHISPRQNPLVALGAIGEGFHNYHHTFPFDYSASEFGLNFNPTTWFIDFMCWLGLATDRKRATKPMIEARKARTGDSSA
# In short: (§1)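 ole1Δ yeast (W303 pdr1Δ pdr3Δ background) carrying plasmid-borne Ole1, SCD1 or SCD5, grown in uracil-free media; cultures pre-grown in raffinose, seeded at 2× density 0.02 in galactose media with compound. Growth read as OD600 after 24 h at 30° C. for Ole1, 40 h for SCD1/SCD5.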
# SCD1 = target: T2, SCD1 (Homo sapiens, UniProt O00767); experiment: Growth inhibition of humanized yeast strain expressing SCD1 as sole desaturase; type: cell-based
# T2 construct: host or cells: S. cerevisiae ole1Δ strain (W303 pdr1Δ pdr3Δ background), plasmid pRS316 with TDH3 promoter and CYC1 terminator
# T2 sequence (O00767 1-359): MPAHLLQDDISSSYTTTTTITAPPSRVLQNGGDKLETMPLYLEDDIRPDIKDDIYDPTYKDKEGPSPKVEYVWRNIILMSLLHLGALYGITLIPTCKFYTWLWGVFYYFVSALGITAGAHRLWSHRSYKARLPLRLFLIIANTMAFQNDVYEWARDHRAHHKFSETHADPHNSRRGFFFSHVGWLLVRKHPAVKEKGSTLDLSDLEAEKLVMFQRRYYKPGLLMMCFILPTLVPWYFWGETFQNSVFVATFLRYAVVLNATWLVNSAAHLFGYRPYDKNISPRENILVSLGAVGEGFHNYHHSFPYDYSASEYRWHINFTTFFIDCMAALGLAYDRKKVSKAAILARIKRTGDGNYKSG
# In short: as §1
# [1] = humanized yeast strain expressing SCD5
# [2] = humanized yeast strain expressing SCD1
# [3] = growth inhibition of humanized yeast strain expressing human SCD5
# [4] = growth inhibition of humanized yeast strain expressing human SCD1
SMILES,"IC50 (SCD5; humanized yeast strain, 40 h) [nM]","IC50 (SCD1; humanized yeast strain, 40 h) [µM]",also measured
CC(C)n1ncc2ccc(-c3nc(C4CCNC4)no3)cc21 (stereo not drawn) [Compound 531],,,IC50 (SCD5; [1]): > 45000 nM; IC50 (SCD1; [2]): > 45 µM
O=C(c1sccc1Cl)N1CCC(c2noc(-c3ccc4cnn(C5COC5)c4c3)n2)CC1 [Compound 698],,,IC50 (SCD5; [3]): 26 nM; IC50 (SCD1; [4]): > 45 µM
CC(C)(C)OC(=O)N1CCC(c2nnc(-c3ccc4cnn(C5COC5)c4c3)o2)CC1 [Compound 851],65,> 45,
COC(=O)N1CCN(c2noc(-c3ccc4cnn(C5CNC5)c4c3)n2)CC1 [Compound 946],4110,> 45,
O=C(N1CCC(c2noc(-c3ccc4cnn(C5COC5)c4c3)n2)CC1)C12CC(F)(C1)C2 [Compound 895],10,> 45,
Cc1nn(C)c2cc(-c3noc(C4CCN(C(=O)CN)CC4(F)F)n3)ccc12 (stereo not drawn) [Compound 665],,,IC50 (SCD5; [3]): 5010 nM; IC50 (SCD1; [4]): > 45 µM
O=C(C1CC1)N1CCC(c2noc(-c3ccnc(NC4COC4)c3)n2)CC1 [Compound 1115],10600,> 45,
Cn1cc(-c2cc(-c3nc(C4CCN(C(=O)OC(C)(C)C)CC4)no3)ccn2)cn1 [Compound 1182],720,0.83,
CC(C)n1nc(CO)c2ccc(-c3noc(C4CCN(C(=O)OC(C)(C)C)CC4)n3)cc21 [Compound 781],4800,> 45,
COC(=O)N1CCC(c2noc(-c3cc(F)c4cnn(C5CCOC5)c4c3)n2)CC1 (stereo not drawn) [Compound 1073],2.52,8.36,
CC(C)n1ncc2ccc(-c3nnc(C4CCN(C(=O)OC(C)(C)C)CC4)o3)cc21 [Compound 849],644,> 45,
O=C(N1CCN(c2noc(-c3ccnc(Cl)c3)n2)CC1)C1(F)CC1 [Compound 1120],32800,> 45,
CCC(=O)N1CCN(c2nc(-c3ccc4cnn(C5CN(C(=O)CC)C5)c4c3)no2)CC1 [Compound 930],200,> 45,
CC(C)n1ncc2ccc(-c3noc(N4CCN(C(=O)c5cccc(F)c5)CC4)n3)cc21 [Compound 547],,,IC50 (SCD5; [1]): 44300 nM; IC50 (SCD1; [2]): > 45 µM
CC1(OC(=O)N2CCC(c3noc(-c4cc(F)c5cnn(C6COC6)c5c4)n3)CC2)CC1 [Compound 1069],0.862,> 45,
CC(C)(C)CC(=O)N1CCC(c2nc(-c3ccc4cnn(C5COC5)c4c3)no2)CC1 [Compound 617],,,IC50 (SCD5; [3]): 121 nM; IC50 (SCD1; [4]): > 45 µM
COC(=O)N1CC(c2noc(-c3ccc4cnn(C5COC5)c4c3)n2)C1 [Compound 928],10,> 45,
CC(C)n1ncc2ccc(-c3noc(C4CCN(C(=O)C5CCCN5C)CC4)n3)cc21 (stereo not drawn) [Compound 706],,,IC50 (SCD5; [3]): > 45000 nM; IC50 (SCD1; [4]): > 45 µM
CC(C)n1ncc2ccc(-c3noc(N4CCC(C(CO)CCl)CC4)n3)cc21 (stereo not drawn) [Compound 765],19300,32.9,
Cc1nn(C)c2cc(-c3noc(C4CCN(C(=O)CNC(=O)c5cccc(F)c5)CC4(F)F)n3)ccc12 (stereo not drawn) [Compound 602],,,IC50 (SCD5; [1]): 2740 nM; IC50 (SCD1; [2]): 15.9 µM
CC(C)(C)OC(=O)N1C[C@@H]2[C@H](C1)[C@H]2C(=O)NCc1ccncc1 [Compound 768],> 45000,> 45,
COC1(C(=O)N2CCC(c3nc(-c4ccc5cnn(C(C)C)c5c4)no3)CC2)CC1 [Compound 797],133,> 45,
CC(C)(C)OC(=O)N1CCCC(c2noc(-c3ccc4cnn(C5COC5)c4c3)n2)CC1 (stereo not drawn) [Compound 850],10,> 45,
CC(C)n1ncc2ccc(-c3noc(N4CCN(C(=O)c5ccccc5)CC4)n3)cc21 [Compound 362],,,IC50 (SCD5; [1]): > 45000 nM; SCD5 % Max Inhibition (SCD5; [1]): 2.26%; SCD1 % Max Inhibition (SCD1; [2]): 67.00%
COC(=O)N1CCC(c2nnc(-c3ccc4cnn(C5COC5)c4c3)o2)CC1 [Compound 871],9540,> 45,
CC(C)(C)OC(=O)N1CCC(c2noc(-c3cc(Br)c4cnn(C5COC5)c4c3)n2)CC1 [Compound 1041],10,> 45,
CC(C)(C)OC(=O)N1CCN(c2nc(-c3ccc4cnn(C5COC5)c4c3)no2)CC1 [Compound 664],,,IC50 (SCD5; [3]): 23 nM; IC50 (SCD1; [4]): 23.5 µM
C=C(F)/C=C/n1cc2ccc(-c3noc(C4CCN(C(=O)OC(C)(C)C)CC4)n3)cc2n1 [Compound 739],,,IC50 (SCD5; [3]): > 45000 nM; IC50 (SCD1; [4]): > 45 µM
